# Earlier results in patent US20050090475A1, “Extended triphasic contraceptive regimens” (priority 2003, published 2005).
# What was measured:
# endometrium = settings: animal models
# [1] = ovariectomized rat, compared with progesterone
# [2] = target: T1, endometrial progesterone receptors (Homo sapiens, UniProt P06401)
# T1 sequence (P06401 1-933): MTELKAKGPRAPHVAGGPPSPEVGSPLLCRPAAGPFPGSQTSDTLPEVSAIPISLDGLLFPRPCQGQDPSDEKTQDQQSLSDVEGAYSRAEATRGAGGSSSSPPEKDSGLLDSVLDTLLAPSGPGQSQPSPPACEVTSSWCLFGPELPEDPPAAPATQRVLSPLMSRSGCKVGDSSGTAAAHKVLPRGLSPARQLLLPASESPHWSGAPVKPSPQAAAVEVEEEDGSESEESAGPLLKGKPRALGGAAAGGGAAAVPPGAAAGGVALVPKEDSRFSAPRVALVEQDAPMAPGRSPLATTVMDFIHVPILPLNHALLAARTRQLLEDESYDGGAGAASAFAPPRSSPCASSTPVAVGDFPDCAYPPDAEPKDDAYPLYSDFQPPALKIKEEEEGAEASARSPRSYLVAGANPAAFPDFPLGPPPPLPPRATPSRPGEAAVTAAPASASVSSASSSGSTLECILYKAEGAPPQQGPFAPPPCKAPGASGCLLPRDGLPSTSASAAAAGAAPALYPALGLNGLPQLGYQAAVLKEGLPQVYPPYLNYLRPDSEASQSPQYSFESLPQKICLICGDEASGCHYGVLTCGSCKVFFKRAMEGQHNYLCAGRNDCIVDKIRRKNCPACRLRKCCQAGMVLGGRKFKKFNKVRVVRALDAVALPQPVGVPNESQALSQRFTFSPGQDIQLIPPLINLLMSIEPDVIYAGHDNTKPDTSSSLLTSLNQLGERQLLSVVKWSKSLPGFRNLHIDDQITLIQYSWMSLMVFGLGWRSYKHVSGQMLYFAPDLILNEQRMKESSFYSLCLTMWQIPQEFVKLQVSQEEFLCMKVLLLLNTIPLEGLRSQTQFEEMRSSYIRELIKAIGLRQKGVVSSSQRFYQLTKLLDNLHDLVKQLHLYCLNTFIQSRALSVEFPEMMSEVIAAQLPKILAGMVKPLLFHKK
# [3] = test system: serum hormone binding globulin (SHBG); settings: in vivo
structure (smiles),measurement,setting,value
C#C[C@]1(OC(C)=O)CC[C@H]2[C@@H]3CCC4=CC(=NO)CC[C@@H]4[C@H]3CC[C@@]21CC (mixture of isomers) [norgestimate],"endometrium in comparison to other, more androgenic, progestins",endometrium,remains relatively thick and supported
same,maintenance of pregnancy,[1],maintains pregnancy as well as progesterone
same,affinity for endometrial progesterone receptors,[2],high affinity
same,effect on serum hormone binding globulin (SHBG) levels,[3],minimal effect
